Here are results for 2 molecules from patent publication US8974834B2, “Method for producing reservoir layer for hoof treatment and reservoir layer” (Ecolab USA Inc., priority 2010, dated 2015).

Data set [1] is described as follows: Chemical analysis of the precipitate (contents of glutaraldehyde and Texapon NSO; Al by XRF). Format: physicochemical. The settings on record: white precipitate from 50 ml solution (a) (31.5 weight % polyaluminium chloride, 7% glutaraldehyde) mixed with 10 g Texapon NSO. As to the method:
(§1) 50 ml of an aqueous solution (a) containing approximately 31.5 weight % polyaluminium chloride (dialuminum chloride pentahydroxide), 7% glutaraldehyde was mixed with 10 g Texapon®NSO (C12-C14 alkyl ether sulfate with 2 mole EO). Before mixing the aluminium content of the aqueous solution (a) was about 9.5 weight %. […] The white precipitate was analyzed with respect to its contents of glutaraldehyde, Texapon®NSO. The content of polyaluminium chloride was analyzed by the content of Al-ions by XRF.

Data set [2] in a line: Formation of a precipitate on mixing a surfactant with aqueous polyaluminium chloride/glutaraldehyde solution. The class given is physicochemical. Conditions: mixed with aqueous solution (a) containing polyaluminium chloride and 7% glutaraldehyde. How it is done:
as §1
50 ml of an aqueous solution (a) containing 10% polyaluminium chloride and 7% glutaraldehyde was mixed with 50 ml of an aqueous solution (b) containing 10 weight % dodecylbenzenesulphonic acid. Before mixing the aluminium content of the aqueous solution (a) was about 3 weight %.
50 ml of an aqueous solution (a) containing 10% polyaluminium chloride, 7% glutaraldehyde was mixed with 50 ml of an aqueous solution (b) containing 10 weight % N-alkyl(C12-C16)-N-benzyl-N,N-dimethylammonium chloride (Barquat®DM-50).

Take `O=CCCCC=O` [glutaraldehyde]: the “quantified values (content in the precipitate)” value in data set [1] amounted to 3.7%.

Consider `CCCCCCCCCCCCc1ccc(S(=O)(=O)O)cc1` [dodecylbenzenesulphonic acid], for which the “formation of a precipitate upon mixing” value in data set [2] was “white solid immediately was formed”.
